Results reported in US9889113B2, “Method for reversing, preventing, delaying or stabilizing soft tissue calcification” (Panion & BF Biotech, Inc., priority 2006, dated 2018).

Columns and labels:
[1] = system: cornea calcification in end stage renal disease patients; assay: Cornea calcification by slit-lamp photographs and Image J analysis, Phase II and open-label extension; format: in vivo, human; settings: for 1st eye test Calcified area on cornea (%): baseline
Procedure: Eye examinations were carried out by using a slit-lamp microscope which was connected to a digital camera (NIKON E995). Calcifications in the cornea occur close to the nasal and temporal sides of the corneal limbus and look like the band keratopathy of hypercalcemia. Observer photographed the inner side (close to nasal), outer side (close to temporal) or took a full view of the cornea where calcification was found (FIG. 6).
An image analysis software called “Image J” was used for data analysis. The image analysis software is developed to display, edit, analyze, process, save and print 8-bit, 16-bit and 32-bit images. It can calculate area and pixel value statistics of user-defined selections, measure distances and angles, and create density histograms and line profile plots. It supports standard image processing functions such as contrast manipulation, sharpening, smoothing, edge detection and median filtering. The software is developed at the Research Services Branch of the National Institute of Mental Health, an institute of the National Institutes of Health (NIH). The software can be downloaded from the NIH website.
The image analysis software is able to measure calcified area and total cornea area that are subjectively defined by the user. To estimate calcified area, the observer first loads the patient's eye picture on to the image software, crops the specific calcified region, and the software will measure the defined section accordingly (defined as how many pixels in that area). […] To estimate the size of the full cornea, the observer used the image software to crop a 90 degrees fan-shape area on the available cornea region on the picture subjectively, and then let the software calculate the size of this fan-shape area to represent ¼ of the full cornea. By multiply the number by four, the observer then got an estimate of total cornea area.
The severity of cornea calcification was evaluated based on the percentage of the cornea surface occupied by calcification, i.e. % inner side calcification+% outer side calcification, wherein inner or outer side calcification is calculated as (calcified area on inner or outer cornea/total cornea area)×100.
In this study, patients were referred to ophthalmic department for eye examination before and after ferric citrate treatment. All patients had their 1st eye examination few days before or on the first dosing day of the Phase II trial (baseline value for cornea calcification). The time for 2nd eye examination was varied. Some were examined right after the Phase II study and some were examined during the OLE period. Nonetheless, disregarding when the 2nd eye examination was taken, it must be obtained after a defined consecutive days of ferric citrate administration in order to be considered as valid value for determinating the effects of ferric citrate on the cornea calcification changes.
All patients from the ferric citrate Phase II clinical trial were followed with a drug free period for various length of time, and some patients then participated in the open-label extension treatment period. Each participating patients received two eye examinations performed by an ophthalmologist. Depending on the dates of the first and second eye examinations and the corresponding drug dosing period, not all participating patients can generate usable information. The accepted patients were those who had received consecutive dosing for at least 21 days. The period between the first and second eye examination was at least as long as the dosing period. The actual interval between the two eye examinations was not relevant for the purpose of this evaluation since the longer the time between the first and second eye examination, the higher the possibility of cornea calcification development, not the other way around. […]

[2] = system: patients with end stage renal disease (ESRD); assay: Serum creatinine level in the open-label extension of the Phase II study; format: in vivo, human; settings: several patients who received 6 g/day
Source text: Glomerular filtration rate (GFR) level correlates with structural kidney damage and is used as a golden standard to measure kidney function. GFR can be estimated by the biomarkers serum creatinine. As renal function deteriorates, kidney lost its function to excrete creatinine effectively and lead to creatinine retention in the body. Therefore, increase of serum creatinine indicates lowering GFR and is an important sign of kidney deterioration.
In an open-label extension of a Phase II clinical study: “randomized, double-blind, placebo-controlled, dose-ranging study of the effects of ferric citrate on serum phosphate in patients with end stage renal disease (ESRD)”, some of the patients were administered 2-6 g/day of ferric citrate and serum creatinine level was monitored to assess kidney function.

[3] = 11 patients on active treatment (22 eye values)
[4] = Subject 2-01-1-002, Left eye, 2 g/day, treatment 28 days, interval between tests 61 days
[5] = Subject 2-01-1-002, Right eye, 2 g/day, treatment 28 days, interval between tests 61 days
[6] = Subject 2-01-1-004, Left eye, 6 g/day, treatment 28 days, interval between tests 78 days
[7] = Subject 2-01-1-004, Right eye, 6 g/day, treatment 28 days, interval between tests 78 days
[8] = Subject 2-01-1-006, Left eye, 6 g/day, treatment 28 days, interval between tests 50 days
[9] = Subject 2-01-1-006, Right eye, 6 g/day, treatment 28 days, interval between tests 50 days
[10] = Subject 2-01-1-009, Left eye, 4 g/day, treatment 28 days, interval between tests 50 days
[11] = Subject 2-01-1-009, Right eye, 4 g/day, treatment 28 days, interval between tests 50 days
[12] = Subject 2-01-1-012, Left eye, 2 g/day, treatment 28 days, interval between tests 66 days
[13] = Subject 2-01-1-012, Right eye, 2 g/day, treatment 28 days, interval between tests 66 days
[14] = Subject 2-01-1-018, Left eye, 6 g/day, treatment 28 days, interval between tests 75 days
[15] = Subject 2-01-1-018, Right eye, 6 g/day, treatment 28 days, interval between tests 75 days
[16] = Subject 2-01-1-022, Left eye, 6 g/day, treatment 57 days, interval between tests 217 days
[17] = Subject 2-01-1-022, Right eye, 6 g/day, treatment 57 days, interval between tests 217 days
[18] = Subject 2-01-1-042, Left eye, 6 g/day, treatment 42 days, interval between tests 199 days
[19] = Subject 2-01-1-042, Right eye, 6 g/day, treatment 42 days, interval between tests 199 days
[20] = Subject 2-01-1-048, Left eye, 4 g/day, treatment 28 days, interval between tests 186 days
[21] = Subject 2-01-1-048, Right eye, 4 g/day, treatment 28 days, interval between tests 186 days
[22] = Subject 2-01-1-050, Left eye, 6 g/day, treatment 33 days, interval between tests 198 days
[23] = Subject 2-01-1-050, Right eye, 6 g/day, treatment 33 days, interval between tests 198 days
[24] = Subject 2-01-1-068, Left eye, 6 g/day, treatment 34 days, interval between tests 202 days
[25] = Subject 2-01-1-068, Right eye, 6 g/day, treatment 34 days, interval between tests 202 days

O=C([O-])CC(O)(CC(=O)[O-])C(=O)[O-].[Fe+3] [ferric citrate]
average change of worsened eye cornea calcification values ([1]; 10 worsened eye values of 11 actively treated patients): +2.20% | average change of improved eye cornea calcification values ([1]; 11 improved eye values of 11 actively treated patients): −2.07% | number of eye cornea calcification values that exhibited improvement [1, 3]: 11 | number of eye cornea calcification values that remained unchanged [1, 3]: one | number of eye cornea calcification values that exhibited worsened results ([1]; 11 patients on active treatment (22 eye values), 2-6 g/day, 28 to 57 days): 10 | effect on cornea calcification conditions (overall) ([1]; ESRD patients, 2-6 g/day): appears to delay or improve cornea calcification conditions | cornea calcification after treatment (FIG. 10) ([1]; Patient ID 2-01-1-012, 2 g/day, treatment period 28 days): improved cornea calcification | 2nd eye test Calcified area on cornea (%) [1, 4]: 3.75% | Difference between 1st and 2nd tests (%) [1, 4]: −0.15% | 1st eye test Calcified area on cornea (%) [1, 4]: 3.90% | 2nd eye test Calcified area on cornea (%) [1, 5]: 0.00% | Difference between 1st and 2nd tests (%) [1, 5]: 0.00% | 1st eye test Calcified area on cornea (%) [1, 5]: 0.00% | 2nd eye test Calcified area on cornea (%) [1, 6]: 1.10% | Difference between 1st and 2nd tests (%) [1, 6]: −1.40% | 1st eye test Calcified area on cornea (%) [1, 6]: 2.50% | 2nd eye test Calcified area on cornea (%) [1, 7]: 2.20% | Difference between 1st and 2nd tests (%) [1, 7]: −2.18% | 1st eye test Calcified area on cornea (%) [1, 7]: 4.38% | 2nd eye test Calcified area on cornea (%) [1, 8]: 50.36% | Difference between 1st and 2nd tests (%) [1, 8]: −0.59% | 1st eye test Calcified area on cornea (%) [1, 8]: 50.95% | 2nd eye test Calcified area on cornea (%) [1, 9]: 29.27% | Difference between 1st and 2nd tests (%) [1, 9]: −3.16% | 1st eye test Calcified area on cornea (%) [1, 9]: 32.43% | 2nd eye test Calcified area on cornea (%) [1, 10]: 0.00% | Difference between 1st and 2nd tests (%) [1, 10]: −1.16% | 1st eye test Calcified area on cornea (%) [1, 10]: 1.16% | 2nd eye test Calcified area on cornea (%) [1, 11]: 1.00% | Difference between 1st and 2nd tests (%) [1, 11]: 0.49% | 1st eye test Calcified area on cornea (%) [1, 11]: 0.51% | 2nd eye test Calcified area on cornea (%) [1, 12]: 2.09% | Difference between 1st and 2nd tests (%) [1, 12]: −1.41% | 1st eye test Calcified area on cornea (%) [1, 12]: 3.50% | 2nd eye test Calcified area on cornea (%) [1, 13]: 4.69% | Difference between 1st and 2nd tests (%) [1, 13]: −10.21% | 1st eye test Calcified area on cornea (%) [1, 13]: 14.90% | 2nd eye test Calcified area on cornea (%) [1, 14]: 7.72% | Difference between 1st and 2nd tests (%) [1, 14]: 1.79% | 1st eye test Calcified area on cornea (%) [1, 14]: 5.93% | 2nd eye test Calcified area on cornea (%) [1, 15]: 38.86% | Difference between 1st and 2nd tests (%) [1, 15]: −1.99% | 1st eye test Calcified area on cornea (%) [1, 15]: 40.85% | 2nd eye test Calcified area on cornea (%) [1, 16]: 8.37% | Difference between 1st and 2nd tests (%) [1, 16]: 6.98% | 1st eye test Calcified area on cornea (%) [1, 16]: 1.39% | 2nd eye test Calcified area on cornea (%) [1, 17]: 7.29% | Difference between 1st and 2nd tests (%) [1, 17]: 0.08% | 1st eye test Calcified area on cornea (%) [1, 17]: 7.21% | 2nd eye test Calcified area on cornea (%) [1, 18]: 4.91% | Difference between 1st and 2nd tests (%) [1, 18]: 4.24% | 1st eye test Calcified area on cornea (%) [1, 18]: 0.67% | 2nd eye test Calcified area on cornea (%) [1, 19]: 3.73% | Difference between 1st and 2nd tests (%) [1, 19]: 3.24% | 1st eye test Calcified area on cornea (%) [1, 19]: 0.49% | 2nd eye test Calcified area on cornea (%) [1, 20]: 2.01% | Difference between 1st and 2nd tests (%) [1, 20]: 0.16% | 1st eye test Calcified area on cornea (%) [1, 20]: 1.85% | 2nd eye test Calcified area on cornea (%) [1, 21]: 2.09% | Difference between 1st and 2nd tests (%) [1, 21]: −0.41% | 1st eye test Calcified area on cornea (%) [1, 21]: 2.50% | 2nd eye test Calcified area on cornea (%) [1, 22]: 1.62% | Difference between 1st and 2nd tests (%) [1, 22]: 0.76% | 1st eye test Calcified area on cornea (%) [1, 22]: 0.86% | 2nd eye test Calcified area on cornea (%) [1, 23]: 1.54% | Difference between 1st and 2nd tests (%) [1, 23]: −0.08% | 1st eye test Calcified area on cornea (%) [1, 23]: 1.62% | 2nd eye test Calcified area on cornea (%) [1, 24]: 3.09% | Difference between 1st and 2nd tests (%) [1, 24]: 2.04% | 1st eye test Calcified area on cornea (%) [1, 24]: 1.05% | 2nd eye test Calcified area on cornea (%) [1, 25]: 2.24% | Difference between 1st and 2nd tests (%) [1, 25]: 2.24% | 1st eye test Calcified area on cornea (%) [1, 25]: 0.00% | serum creatinine level [2]: trend of decreased serum creatinine level
